In US11401295B2, “Cyclic dinucleotide compound and uses thereof” (SHANGHAI JEMINCARE PHARMACEUTICALS CO., LTD., priority 2018, dated 2022):
Read-outs that look alike come from different tables or passages of the source.

How the values were obtained:
[1] = test system: IRF3 pathway in RAW-Dual cells (RAW264.7); assay: Raw-Dual reporter gene activity assay (luciferase, QUANTI-Luc); assay type: cell-based, mouse
Protocol: The RAW-Dual™ cells used in the test (InvivoGen catalog code: rawd-ismip) were constructed by stably integrating two inducible reporter genes in mouse macrophage cell line RAW264.7. The NF-KB pathway was studied by detecting SEAP activity and the IRF3 pathway was studied by evaluating the activity of luciferase. […] On the second day, the culture medium was discarded, and 200 μL of compound solution prepared in advance with the culture medium was added into each well followed by incubation at room temperature for 30 minutes. After the treatment medium was sucked out, it was washed twice with serum-free culture medium, and 200 μL of culture medium was added into each well, followed by incubation in an incubator at 37° C. for 18-24 hours. On the third day, 20 μL of supernatant was collected per well and QUANTI-Luc™ was used to quantify the activation of IRF3 pathway according to the manufacturer's instructions.

[2] = test system: IRF3 pathway in THP1-Dual cells; assay: THP1-Dual reporter gene activity assay (Lucia luciferase, QUANTI-Luc); assay type: cell-based, human
Description: THP1-Dual™ cells (InvivoGen catalog code: thpd-nfis) used in the test were constructed by stably integrating two inducible reporter genes into the human monocyte cell line THP1. The promoter sequence composition of the secretory embryonic alkaline phosphatase (SEAP) reporter gene consists of an IFN-β primary promoter and five copies of the upstream NF-κB co-expression transcriptional response element and three copies of the c-Rel binding site. The secretory luciferase (Lucia) reporter gene is driven by five interferon (IFN)-stimulated response elements and a basic promoter of ISG54. This made it possible to study simultaneously the two major downstream signaling pathways of STING: the NF κB pathway by detecting SEAP activity: and the IRF pathway by evaluating the activity of Lucia luciferase.
The compounds were diluted with PB buffer (50 mM HEPES, 100 mM KCl, 3 mM MgCl2, 0.1 mM DTT, 85 mM Sucrose, 1 mM ATP, 0.1 mM GTP, 0.20% BSA). 20 μL of the reference or tested compound was added to each well in a 96-well plate, followed by 180 μL of THP1-Dual cells (approximately 100,000 cells/well) suspended in PB buffer. The plate was incubated for 30 minutes at 37° C. under […], and centrifuged at 1000 rpm for 10 minutes. The supernatant was discarded. […] The supernatants were collected and QUANTI-Luc™ was used to quantify the activation of the IRF3 pathway according to the manufacturer's instructions.

[3] = Mus musculus, RAW264.7, read-out: Raw, EC50
[4] = THP1-Dual cells, IRF3 pathway (Lucia), 30 min treatment, 18 hours incubation, read-out: EC50

Row | Compound | EC50 [1, 3] | EC50 [2] | EC50 ([1]; read-out: Raw, EC50) | also measured
1 | BP1(=O)OC[C@H]2O[C@@H](n3cnc4c(N)ncnc43)C(O)[C@H]2OP(=O)(S)OC[C@H]2O[C@@H](n3cnc4c(N)ncnc43)C(F)[C@H]2O1 (single isomer, unassigned) [Compound 1C] | 41.4 µM | 16.8 µM | – | –
2 | BP1(=O)OC[C@H]2O[C@@H](n3cnc4c(N)ncnc43)C(O)[C@H]2OP(=O)(S)OC[C@H]2O[C@@H](n3cnc4c(N)ncnc43)C(F)[C@H]2O1 (single isomer, unassigned) [Compound 1D] | – | 7.48 µM | 24.4 µM | –
3 | BP1(=O)OC[C@H]2O[C@@H](n3cnc4c(N)ncnc43)[C@@H](F)C2OP(B)(=O)OC[C@H]2O[C@@H](n3cc(F)c4c(=O)[nH]cnc43)[C@@H](O)C2O1 (single isomer, unassigned) [Compound 3B] | – | – | – | EC50 ([2]; Homo sapiens, THP1-Dual): 42.2 µM
4 | BP1(=O)OC[C@H]2O[C@@H](n3cnc4c(N)ncnc43)[C@@H](F)C2OP(B)(=O)OC[C@H]2O[C@@H](n3cc(F)c4c(=O)[nH]cnc43)[C@@H](O)C2O1 (single isomer, unassigned) [Compound 3C] | 9.4 µM | 47.2 µM | – | –
5 | BP1(=O)OC[C@H]2O[C@@H](n3cnc4c(N)ncnc43)[C@@H](F)C2OP(B)(=O)OC[C@H]2O[C@@H](n3cc(F)c4c(=O)[nH]cnc43)[C@@H](O)C2O1 (single isomer, unassigned) [Compound 3D] | – | 26.1 µM | 10 µM | –
6 | BP1(=O)OC[C@@]23COC([C@H](n4cnc5c(N)ncnc54)O2)[C@H]3OP(B)(=O)OC[C@H]2O[C@@H](n3cnc4c(N)ncnc43)[C@@H](F)C2O1 (single isomer, unassigned) [Compound 5A] | – | 6.2 µM | – | –
7 | BP1(=O)OC[C@@]23COC([C@H](n4cnc5c(N)ncnc54)O2)[C@H]3OP(B)(=O)OC[C@H]2O[C@@H](n3cnc4c(N)ncnc43)[C@@H](F)C2O1 (single isomer, unassigned) [Compound 5B] | 54.8 µM | – | – | EC50 ([2]; Homo sapiens, THP1-Dual): 11.4 µM
8 | BP1(=O)OC[C@@]23COC([C@H](n4cnc5c(N)ncnc54)O2)[C@H]3OP(B)(=O)OC[C@H]2O[C@@H](n3cnc4c(N)ncnc43)[C@@H](F)C2O1 (single isomer, unassigned) [Compound 5C] | – | – | 28.2 µM | –
9 | BP1(=O)OC[C@@]23COC([C@H](n4cnc5c(N)ncnc54)O2)[C@H]3OP(B)(=O)OC[C@H]2O[C@@H](n3cnc4c(N)ncnc43)[C@@H](F)C2O1 (single isomer, unassigned) [Compound 5D] | 31.6 µM | 12.6 µM | – | –
10 | BP1(=O)OC[C@H]2O[C@@H](n3cc(F)c4c(=O)[nH]cnc43)[C@@H](F)C2OP(B)(=O)OC[C@H]2O[C@@H](n3cnc4c(N)ncnc43)[C@@H](F)C2O1 (single isomer, unassigned) [Compound 6A] | – | 1.36 µM | – | –
11 | BP1(=O)OC[C@H]2O[C@@H](n3cc(F)c4c(=O)[nH]cnc43)[C@@H](F)C2OP(B)(=O)OC[C@H]2O[C@@H](n3cnc4c(N)ncnc43)[C@@H](F)C2O1 (single isomer, unassigned) [Compound 6B] | – | 9.31 µM | 5.4 µM | –
12 | BP1(=O)OC[C@H]2O[C@@H](n3cc(F)c4c(=O)[nH]cnc43)[C@@H](F)C2OP(B)(=O)OC[C@H]2O[C@@H](n3cnc4c(N)ncnc43)[C@@H](F)C2O1 (single isomer, unassigned) [Compound 6C] | – | 2.31 µM | 1.1 µM | –
13 | BP1(=O)OC[C@H]2O[C@@H](n3cc(F)c4c(=O)[nH]cnc43)[C@@H](F)C2OP(B)(=O)OC[C@H]2O[C@@H](n3cnc4c(N)ncnc43)[C@@H](F)C2O1 (single isomer, unassigned) [Compound 6D] | – | 12.3 µM | 9.5 µM | –
14 | Nc1nc2c(ncn2[C@@H]2O[C@@H]3COP(=O)(O)O[C@H]4[C@@H](O)[C@H](n5cnc6c(N)ncnc65)O[C@@H]4COP(=O)(O)O[C@@H]2[C@@H]3O)c(=O)[nH]1 [2′,3′-cGAMP, (2′ 3′) cyclic guanosine monophosphate-adenosine monophosphate, reference compound] | – | – | – | EC50 [2, 4]: 20.2 µM
15 | Nc1ncnc2c1ncn2[C@@H]1O[C@@H]2COP(=O)(S)O[C@@H]3[C@H](O)[C@@H](COP(O)(=S)O[C@H]2[C@H]1O)O[C@H]3n1cnc2c(N)ncnc21 (stereo partly drawn) [ADU-S100, reference compound] | – | – | – | EC50 ([1]; RAW-Dual cells, IRF3 pathway, 30 min treatment, 18-24 hours incubation, read-out: Raw, EC50): 47.1 µM; EC50 [2, 4]: 23.4 µM
16 | BP1(=O)OC[C@H]2O[C@@H](n3cnc4c(N)ncnc43)C(O)[C@H]2OP(=O)(S)OC[C@H]2O[C@@H](n3cnc4c(N)ncnc43)[C@@H](F)C2O1 (stereo partly drawn) [Compound 1A] | – | – | – | EC50 ([2]; Homo sapiens, THP1-Dual): 74.7 µM
17 | BP1(=O)OC[C@H]2O[C@@H](n3cnc4c(N)ncnc43)C(O)[C@H]2OP(=O)(S)OC[C@H]2O[C@@H](n3cnc4c(N)ncnc43)C(F)[C@H]2O1 (stereo partly drawn) [Compound 1B] | 15.8 µM | – | – | EC50 ([2]; Homo sapiens, THP1-Dual): 7.38 µM
18 | BP1(=O)OC[C@H]2O[C@@H](n3cnc4c(N)ncnc43)C(F)[C@H]2OP(B)(=O)OC[C@H]2O[C@@H](n3cnc4c(N)ncnc43)[C@@H](F)C2O1 (stereo partly drawn) [Compound 2A] | 23.4 µM | – | – | EC50 ([2]; Homo sapiens, THP1-Dual): 1.75 µM
